The text below walks through data of patent publication US9555050B2 (BIOGEN MA INC., priority 2012, dated 2017).

SMILES strings stand for the structures.

For this assay, the target named is T1, Human ATX protein (Homo sapiens, UniProt Q13822).
T1 construct: made in house
In words: ATX biochemical FRET assay with FS-3 substrate. Conditions: FS-3 substrate 2 μM, ATX 1.0 μg/mL, 30 min preincubation, 2 hours at room temperature. The source says: ATX (Autotaxin) is a 125 KDa glycoprotein with lysophospholipase D (LPLD) activity that generates the bioactive lipid lysophosphatidic acid (LPA) from lysophosphatidylcholine (LPC). The ATX biochemical assay utilizes a FRET (fluorescence resonance energy transfer) technology platform. The fluorescence signal of FRET substrate FS-3 is quenched due to intra-molecular FRET of a fluorophore to a non-fluorescing quencher (Ferguson, C. G., et al., Org Lett. 2006 May 11; 8(10): 2023-2026, which is incorporated by reference in its entirety). ATX catalyzes the hydrolysis of the substrate which separates the dabsyl quencher from the fluorescein reporter, which becomes fluorescent. The reaction is monitored by a SpectraMax M5 (Molecular Devices, Sunnyvale, Calif.) with at excitation wavelength 485 nm and emission wavelength […].
Fatty acid free-BSA (Sigma A8806): 10 mg/mL in H2O, stored at 4° C.
2×ATX assay buffer: 100 mM Tris, 280 mM NaCl, 10 mM KCl, 2 mM CaCl2, 2 mM MgCl2, pH 7.4.
Human ATX protein: expressed and purified in house. Stored at −80° C.
Substrate FS-3 (Echelon, L-2000): 100 μg in 77.74.L H2O (1 mM stock), stored at −20° C.
384-well flat bottom plates—Corning #3575.
Compound dilution—All compounds were provided at 10 mM in 100% DMSO. In the first well, 2 μL of 10 mM compound was added to 78 μL of DMSO (1:40 dilution). In subsequent wells 3-fold dilution (total 10 dilutions) were performed.
1×ATX assay buffer was made up with a final concentration of 1 mg/mL fatty acid free-BSA using 2×ATX assay buffer, 10 mg/ml fatty acid free-BSA and ddH2O.
ATX protein was diluted with 1×ATX assay buffer to a concentration of 1.32 μg/mL (1.32×). 38 μL was added per well to the assay plate. The final concentration of ATX in the reaction as 1.0 μg/mL.
2 μL per well of compounds was transferred to provide the desired concentration. The plate was centrifuged, then incubated at room temperature for 30 minutes on the shaker.
FS-3 was diluted with 1×ATX assay buffer to a concentration of FS-3 of 10 μM (5×). Then, 10 μL was added per well to the assay plate. The final concentration of FS-3 in the reaction was 2 μM. The plate was centrifuged. The plate was kept shaking at room temperature for 2 hours. Because FS-3 substrate is light sensitive, plates were kept covered and protected from light.
Fluorescence was measured using SpectraMax M5 (excitation at 485 nm/emission at 538 nm, top read).
Usually IC50 stands for the concentration that inhibits the measured activity by half. Higher therefore signals weaker potency. On to `CC1CN(Cc2ccc3c(C(F)(F)F)c(O[C@H]4CC[C@@H](C(F)(F)F)CC4)ccc3c2)CCC1C(=O)O` (relative stereo) [Example 74, 1-((5-(trifluoromethyl)-6-((cis-4-(trifluoromethyl)cyclohexyl)oxy)-naphthalen-2-yl)methyl)-3-methylpiperidine-4-carboxylic acid], for which the IC50 is at most 500 nM.

`O=C(O)c1ccc(CNCc2ccc3c(C(F)(F)F)c(O[C@H]4CC[C@@H](C(F)(F)F)CC4)ccc3c2)cn1` [Example 75, 5-((((5-(trifluoromethyl)-6-((cis-4-(trifluoromethyl)cyclohexyl)oxy)-naphthalen-2-yl)methyl)amino)methyl)pyridine-2-carboxylic acid] showed an IC50 of at most 250 nM.

`O=C(O)c1ccc(CNCc2ccc3c(C(F)(F)F)c(O[C@H]4CC[C@@H](C(F)(F)F)CC4)ccc3c2)nc1` [Example 69, 6-((((5-(trifluoromethyl)-6-((cis)-4-(trifluoromethyl)cyclohexyloxy)naphthalene-2-yl)methyl)amino)methyl)nicotinic acid]: the half-maximal inhibitory concentration (IC50) is at most 250 nM.

In turn, `CC1(C(=O)O)CCN(Cc2ccc3c(C(F)(F)F)c(O[C@H]4CC[C@@H](C(F)(F)F)CC4)ccc3c2)CC1` [Example 30, 4-methyl-1-((5-(trifluoromethyl)-6-((cis)-4-(trifluoromethyl)cyclohexyloxy)naphthalen-2-yl)methyl)piperidine-4-carboxylic acid] displayed an IC50 of at most 500 nM.

`CC1(C)C(NC(c2ccc3c(C(F)(F)F)c(O[C@H]4CC[C@@H](C(F)(F)F)CC4)ccc3c2)C2CCCCC2)CC1C(=O)O` (some centres unmarked) [Example 43]: the IC50 is at most 500 nM.

Take `CCC(c1ccc2c(C(F)(F)F)c(O[C@H]3CC[C@@H](CC)CC3)ccc2c1)N1CCC[C@H](CC(=O)O)C1` (stereo partly drawn) [Example 7, 2-((3R)-1-(1-(6-((cis-4-ethylcyclohexyl)oxy)-5-(trifluoromethyl)naphthalen-2-yl)propyl)piperidin-3-yl)acetic acid]: the IC50 was at most 100 nM.

In the case of `CC1(C)C(NCc2ccc3c(C(F)F)c(O[C@H]4CC[C@@H](C(F)(F)F)CC4)ccc3c2)CC1C(=O)O` (relative stereo) [Example 33, 3-((5-(difluoromethyl)-6-((cis)-4-(trifluoromethyl)cyclohexyloxy)naphthalen-2-yl)methylamino)-2,2-dimethylcyclobutanecarboxylic acid], the 50% inhibitory concentration (IC50) was at most 500 nM.

Consider `CC(C(=O)O)[C@H]1CCCN(Cc2ccc3c(C(F)(F)F)c(O[C@H]4CC[C@@H](C(F)(F)F)CC4)ccc3c2)C1` (mixture of isomers) [Example 102, (S)-2-((R)-1-((5-(trifluoromethyl)-6-((cis-4-(trifluoromethyl)cyclohexyl)oxy)naphthalen-2-yl)methyl)piperidin-3-yl)propanoic acid], for which the IC50 was at most 250 nM.

As for `O=C(O)C[C@H]1CN(Cc2ccc3c(C(F)(F)F)c(O[C@H]4CC[C@@H](C(F)(F)F)CC4)ccc3c2)CCO1` [Example 82, 2-((S)-4-((2-(cis-4-(trifluoromethyl)cyclohexyloxy)-1-(trifluoromethyl)naphthalen-6-yl)methyl)morpholin-2-yl)acetic acid], the IC50 is at most 250 nM.

Molecule `CC(NC1CC(C(=O)O)C1(C)C)c1ccc2c(C(F)(F)F)c(O[C@H]3CC[C@@H](C(F)(F)F)CC3)ccc2n1` (stereo partly drawn) [Example 15, 2,2-dimethyl-3-(((1-(5-(trifluoromethyl)-6-(cis-4-(trifluoromethyl)cyclo-hexyl)oxy)quinolin-2-yl)ethyl)amino)cyclobutanecarboxylic acid] showed a half-inhibitory concentration (IC50) of at most 250 nM.

Regarding `O=C(O)CC1CCN(Cc2ccc3c(C(F)(F)F)c(O[C@H]4CC[C@@H](C(F)(F)F)CC4)ccc3c2)C1` (relative stereo) [Example 64, 1-((5-(trifluoromethyl)-6-((cis-4-(trifluoromethyl)cyclohexyl)oxy)-naphthalen-2-yl)methyl)pyrrolidine-3-acetic acid], the IC50 was at most 250 nM.
